Key:
[1] = tested on: normal human epidermal melanocytes (NHEM); experiment: Synthesis of melanin in melanocytes stimulated by L-tyrosine; format: cell-based; conditions: L-tyrosine 1 mM, 10 days, tested at 5 μg/ml
Description: The depigmentation effect potential of the Uchuva extract has been researched in a model of normal human epidermal melanocytes (NHEM). The effect of the Uchuva extract on the synthesis of melanin has been evaluated after ten incubation days under conditions stimulated by L-tyrosine. In this test, the reference inhibitory molecule is lipoic acid. Its action mechanism calls for an inhibition of the expression of the MITF transcription factor (microphthalmia-associated transcription factor). This transcription factor is the major regulator of the expression of tyrosinase and its inhibition results in the reduction of the expression of tyrosinase, enzyme involved in the melanin synthesis. The melanocytes have been sown in 24 wells plate and cultivated in the culture medium for 24 hours. […] After incubation, the melanin has been extracted by lysis of the cells with a solution of NaOH 0.5 N. The optical density (OD) of the samples has been measured at 405 nm, then the quantity of melanin has been determined in comparison with a range of exogenous melanin (melanin curve including standards from 0.39 to 100 μg/ml). […] After dissociation of the cells and solubilisation of the formazan by addition of DMSO, the optical density (OD), which represents the number of living cells and their metabolic activity, has been measured with a 540 nm microplate reader (VERSAmax, Molecular Devices).

[2] = tested on: coding gene for fibrillin 1 (FBN1) in normal human dermal fibroblasts (NHDF); experiment: Transcriptomic analysis (Affymetrix U219 chip) of treated fibroblasts; format: cell-based; conditions: 0.8 μg/ml
Description: (§1) The effects of fractions I, II and […] have been researched on by transcriptomic analysis on models of normal human epidermal keratinocytes and human dermal fibroblasts. This global transcript expression analysis has been carried out after 4 to 24 hours of incubation by using the Affymetrix GeneAtlas™ platform and the U219 “full human transcriptome” chip containing 36,000 transcripts and variants.
• Cellular type: Normal human epidermal keratinocytes (NHEK) • Culture conditions: 37° C., 5% CO2 • Culture medium: Keratinocyte-SFM supplemented with Epidermal Growth Factor (EGF) 0.25 ng/ml Pituitary Extract (PE) 25 μg/ml Gentamycin 25 μg/ml • Test medium: Keratinocyte-SFM supplemented with Gentamycin 25 μg/ml Normal Human Dermal Fibroblasts (NHDF) • Cellular type: Normal human dermal fibroblasts (NHDF), • Culture conditions: 37° C., 5% CO2 • Culture medium: DMEM supplemented with • L-glutamine 2 mM • Penicillin 50 U/ml—Streptomycin 50 μg/ml • Calf foetal serum (CFS) 10% • Test medium: DMEM supplemented with • L-glutamine 2 mM • Penicillin 50 U/ml—Streptomycin 50 μg/ml • CFS 1% 2. Tested Compounds […]
The total RNA of each sample have been extracted using TriPure Isolation Reagent® as per the protocol recommended by the supplier. The quantity and quality of the RNA have been evaluated by capillary electrophoresis (Bioanalyzer 2100, Agilent). […]

[3] = tested on: coding genes for differentiation proteins of the keratinocyte in normal human epidermal keratinocytes (NHEK); experiment: Transcriptomic analysis (Affymetrix U219 chip) of treated keratinocytes; format: cell-based; conditions: 0.8 μg/ml; for expression of coding genes for differentiation proteins of the keratinocyte: KRT1, IVL, DSG1, DSC1, SPRR2A, SPRR2E, SPRR1A, SPRR2D, CALML5, SBSN and KRTDAP: 4 or 24 hours; for effect on the differentiation of the keratinocytes: deduced from gene expression
Description: as §1
• Cellular type: Normal human epidermal keratinocytes (NHEK) • Culture conditions: 37° C., 5% CO2 • Culture medium: Keratinocyte-SFM supplemented with Epidermal Growth Factor (EGF) 0.25 ng/ml Pituitary Extract (PE) 25 μg/ml Gentamycin 25 μg/ml • Test medium: Keratinocyte-SFM supplemented with Gentamycin 25 μg/ml Normal Human Dermal Fibroblasts (NHDF) • Cellular type: Normal human dermal fibroblasts (NHDF), • Culture conditions: 37° C., 5% CO2 • Culture medium: DMEM supplemented with • L-glutamine 2 mM • Penicillin 50 U/ml—Streptomycin 50 μg/ml • Calf foetal serum (CFS) 10% • Test medium: DMEM supplemented with • L-glutamine 2 mM • Penicillin 50 U/ml—Streptomycin 50 μg/ml • CFS 1% 2. Tested Compounds
The cells have been introduced and cultivated in the culture medium for 24 hours and then incubated in their test medium for another 24 hours. Then, the medium has been replaced by the test medium containing or not containing (control) the test compounds and the cells have been incubated for 4 or 24 hours. All the conditions have been completed in n=3.
At the end of the incubation, the culture supernatants have been removed and the cell layers have been rinsed with a PBS solution. The plates have been immediately dry frozen at −80° C.
The total RNA of each sample have been extracted using TriPure Isolation Reagent® as per the protocol recommended by the supplier. The quantity and quality of the RNA have been evaluated by capillary electrophoresis (Bioanalyzer 2100, Agilent).
The amplification of the RNA and the synthesis of the biotinylated RNA analogues (RNAa) have been carried out using the “GeneChip 3'IVT Express” kit (Affymetrix®). The single-strand complementary DNA (cDNA) have been synthesised by reverse transcription of the total RNA in the presence of oligo(dT). By action of a DNA polymerase, a double-stranded cDNA (ds DNA) has been synthesised. Biotinylated RNA have then been synthesised from the cDNA and in the presence of biotinylated ribonucleotide analogues. After a purification stage on magnetic beads, which enables to remove salts, enzymes and free nucleotides, the biotinylated RNA have been hydrolysed into fragments from 35 to 200 nucleotides with a peak at 100-120 nucleotides (fragmented targets). […]

Collagen IV = experiment: Expression of Collagen IV in fibroblasts by immunocytology, fluorescence scoring; format: cell-based, human; conditions: positive control element, 48 hours
Description: The two concentrations of 4.10-5% and 8.10-5% of the Uchuva extract have been tested.
The cells are introduced on D0, in Millicell 8 wells slides, at a rate of 4.103 cells per ml in 400 μl of complete medium. They are treated on D1 for 48 hours with culture in a complete medium. The concentrations of the active to be tested are expressed in % of the extract. The stock solution of the extract has been prepared in DMSO with 20% concentration (w/v). The first dilution has been made to 1/1000th. The following dilutions have been made while maintaining the final DMSO concentration at 0.1%. After 48 hours, the cells are fixed by an alcohol/acid mixture. Then, the cells are marked using an anti-collagen IV antibody (Rockland) diluted in PBS+BSA/tween to 1/50 for 1 hour. The slides are then rinsed twice by PBS. The revelation of the specific marking is done using an FITC coupled secondary antibody (Santa-Cruz) diluted in PBS+BSA/tween to 1/100 for 1 hour. The slides are then rinsed twice by PBS and put between the slide and the cover glass using the RotiMount Fluocare+DAPI (Roth) mounting fluid.
Photos in green and blue are taken using a DP72 camera (Olympus, Japan) connected to a BX-60 epifluorescence microscope (Olympus, Japan).
The photos have been observed by two readers and a scoring of the intensity of fluorescence has done on a linear scale from 0 (no marking) to 4 (very high marking). […]

O=C(O)CCCC[C@@H]1CCSS1 (racemic) [lipoic acid]
inhibition of the synthesis of melanin [1]: 108%

CCCCCCCCCC(=O)O[C@H]1[C@@H](O[C@]2(CO)O[C@H](CO)[C@@H](O)[C@@H]2OC(=O)CC(C)C)O[C@H](CO)[C@@H](OC(=O)C(C)C)[C@@H]1OC(=O)C(C)C [Fraction II, 3-O-(3-methyl-1-oxobutyl)-β-D-fructofuranosyl (1→2)-3,4-bis(2-methylpropanoate)-2-decanoate-α-D-glucopyranoside]
expression of the coding gene for fibrillin 1 (FBN1), fold change ([2]; 4 hours): 3.27 X
expression of the coding gene for fibrillin 1 (FBN1), fold change ([2]; 24 hours): 8.24 X
expression of coding genes for differentiation proteins of the keratinocyte: KRT1, IVL, DSG1, DSC1, SPRR2A, SPRR2E, SPRR1A, SPRR2D, CALML5, SBSN and KRTDAP [3]: expression inhibitions
effect on the differentiation of the keratinocytes [3]: anti differentiating effect

C[C@H](O)[C@H](O)[C@@H](O)[C@@H](O)C=O [rhamnose]
increase in expression of Collagen IV, amplitude compared with the Uchuva extract (Collagen IV): comparable

CCCCCCCCCC(=O)O[C@H]1[C@@H](O[C@]2(CO)O[C@H](CO)[C@@H](O)[C@@H]2OC(=O)C(C)C)O[C@H](CO)[C@@H](OC(=O)C(C)C)[C@@H]1OC(=O)C(C)C [Fraction I, 3-O-(2-methyl-1-oxopropyl)-β-D-fructofuranosyl (1→2)-3,4-bis(2-methylpropanoate)-2-decanoate-α-D-glucopyranoside]
expression of coding genes for differentiation proteins of the keratinocyte: KRT1, IVL, DSG1, DSC1, SPRR2A, SPRR2E, SPRR1A, SPRR2D, CALML5, SBSN and KRTDAP [3]: expression inhibitions
effect on the differentiation of the keratinocytes [3]: anti differentiating effect
